Publication PMC8248988, “A signal capture and proofreading mechanism for the KDEL-receptor explains selectivity and dynamic range in ER retrieval” (eLife, 2021)

Molecular target: T1, human KDELR1 (Homo sapiens, UniProt P24390)
T1 construct: expressed in transfected cells; host or cells: COS-7
Assay: ER retrieval assay, WT KDELR1-GFP
Format: cell-based
Conditions: COS-7 cells, WT human KDEL receptor-GFP with mScarlet ligand
Source text: To create KDELR1-GFP and KDELR2-GFP, the reading frames for Homo sapiens KDELR1 (Uniprot: P24390) and KDELR2 (Uniprot: P33947) were cloned into the pEF5/FRT low level mammalian expression vector with a C-terminal 20 amino acid linker made up of 5 copies of Gly-Ser-Ser-Ser followed by GFP. Specific point mutations were introduced using the Quickchange protocol (Stratagene) and are described in the key resources table and figures. To create the mScarlet-KDEL^sec ligand construct, mScarlet with an N-terminal hGH signal peptide and the 16 C-terminal residues of human BiP at its C-terminus, containing the KDEL signal, was cloned into the pcDNA3.1 vector. […] The Golgi marker protein TGN46 was detected by antibody (sheep anti-TGN46 AHP500G; AbD Serotec) and an Alexa 647 conjugated secondary anti-sheep secondary (A-21448, Invitrogen). In Figure 1d and e, endogenous KDELR was detected by antibody (mouse anti-KDELR ADI-VAA-PT048; Enzo Life Sciences) and Alexa 488 conjugated anti-mouse secondary antibody (A-21202, Invitrogen). For retrieval assays in other figures, KDELR-GFP fusion proteins were directly detected by fluorescence. The mScarlet-xDEL fusion proteins were directly detected by fluorescence. […] The fraction of KDEL receptor in the Golgi apparatus was calculated by dividing the Golgi signal by the total cell signal. […]

T1 sequence (P24390 whole entry): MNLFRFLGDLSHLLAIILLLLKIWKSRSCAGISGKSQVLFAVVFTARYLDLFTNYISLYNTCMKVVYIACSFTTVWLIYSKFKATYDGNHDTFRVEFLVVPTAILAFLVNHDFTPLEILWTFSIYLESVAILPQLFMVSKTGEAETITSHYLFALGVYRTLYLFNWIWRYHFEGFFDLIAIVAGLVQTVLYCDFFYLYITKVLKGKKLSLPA

ADEL [pcDNA3.1 hGHss-mScarlet-H. sapiens BiP639-654K651A (ADEL^SEC), secreted mScarlet fusion with human BiP C-terminus, ADEL signal]
ligand-induced receptor retrieval to the ER (in words): does not activate
